Measurements: article PMC10221314 (Pharmaceuticals, 2023)
Where “and” joins values, the source holds several entries; their conditions need not be identical. Equal entries are not always repeated.

These molecules were tested against T1, FXR (Homo sapiens, UniProt Q96RI1) (assay: Yeast one-hybrid assay of FXR antagonistic activity in HEK-293T cells). Conditions: HEK-293T cells; CDCA (50 μM) as agonist; mean ± SE of three independent tests.
T1 construct: a fusion plasmid of Gal4 DBD-NR-LBD, which included PPARα, PPARβ, PPARγ, RXRα, RXRβ, RXRγ, LXRα, LXRβ, GPBAR, PXR, and FXR; expressed in transfected cells; host or cells: HEK-293T
T1 sequence (Q96RI1 262-486 limits assumed): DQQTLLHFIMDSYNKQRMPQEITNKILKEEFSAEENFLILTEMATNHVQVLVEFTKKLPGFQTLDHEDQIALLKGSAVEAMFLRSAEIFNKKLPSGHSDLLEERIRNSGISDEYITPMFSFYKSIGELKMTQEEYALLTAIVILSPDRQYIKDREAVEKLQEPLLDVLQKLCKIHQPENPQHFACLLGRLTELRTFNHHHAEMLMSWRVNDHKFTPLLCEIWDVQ
Format: cell-based
Description: Cell counting: HEK-293T cells in logarithmic growth phase were digested with 0.25% trypsin, collected, and centrifuged. The trypsin-containing medium was discarded, and 2 mL of fresh phenol red-free DMEM medium containing 5% fetal bovine serum was added. The cells were then mixed with the medium to prepare a cell suspension and counted on a cell counting plate.
Cell plating: A determined number of cells were taken from the cell suspension, diluted with phenol red-free DMEM medium containing 5% fetal bovine serum, and plated at a concentration of 10,000 cells per well (100 µL medium) in a 96-well plate. The plate was then incubated at 37 °C and 5% CO2 for 24 h.
Cell transfection: Fresh phenol red-free DMEM medium was taken in a sterile environment, and the previously extracted pFXR-Binding plasmid and PG4.35[luc2P-9XGA4UAS-Hygro] plasmid were added. The mixture was stirred and allowed to stand at 23 °C for 3 min. Then, a 3% amount of transfection reagent was added to the mixture, and it was allowed to stand at 23 °C for 15 min. The mixture was then added to the 96-well plate at a volume of 10 µL per well and incubated at 37 °C in a 5% CO2 environment for 24 h.
The OA derivatives were prepared as 10 mM DMSO stock solutions and further diluted in a concentration gradient, with 10 µL added to each well. The final concentrations of the derivatives ranged from 10 µM to 0.03 µM, with 7 concentration gradients using […] dilution. The test was set with 3 duplicated wells.
Antagonism activity test: The firefly-Renilla Dual Fluorescence Assay Kit (Promega, #E2940, Madison, WI, USA) was used to measure the antagonism activity of the OA derivatives. Firstly, the firefly fluorescence reagent was added to the 96-well plate at a volume of 70 µL per well and shaken in darkness for 15 min. Then, the fluorescence intensity was measured at a wavelength of 645 ± 30 nm in a microplate reader (BioTek, Winooski, VT, USA). Next, the volume of Renilla reagent was added to the 96-well plate at a volume of 70 µL per well and shaken in darkness for 15 min. The fluorescence intensity was then measured at a wavelength of 525 ± 20 nm.
Data processing: The fluorescence data of firefly were divided by the fluorescence data of Renilla to remove errors, and the antagonism efficiency was calculated using the following formula: antagonism efficiency (%) = [1 − (FCompds. − FDMSO)/(FCDCA − FDMSO)] × 100%. In the formula, F represents fluorescence intensity. The antagonistic efficiency data were obtained as a concentration–effect curve using Graphpad Prism 8.0 software, and the corresponding IC50 value was calculated.

Compared with `CC1(C)CC[C@]2(C(=O)O)CC[C@]3(C)[C@H]([C@H](OC(=O)C[C@H](NC(=O)OC(C)(C)C)C(=O)OC(C)(C)C)CC4[C@@]5(C)CC[C@H](O)C(C)(C)C5CC[C@]43C)[C@@H]2C1` (stereo partly drawn) [Compound 9a, 3-hydroxy-12β-(3′-((tert-butoxycarbonyl)amino)-4′-(tert-butoxy)-L-aspartate)oxy-13H-olean-28-oic acid], `CC1(C)CC[C@]2(C(=O)O)CC[C@]3(C)[C@H]([C@H](OC(=O)C[C@@H](NC(=O)OC(C)(C)C)C(=O)OC(C)(C)C)CC4[C@@]5(C)CC[C@H](O)C(C)(C)C5CC[C@]43C)[C@@H]2C1` (stereo partly drawn) [Compound 9b, 3-hydroxy-12β-(3′-((tert-butoxycarbonyl)amino)-4′-(tert-butoxy)-D-aspartate)oxy-13H-olean-28-oic acid] is 2.5-fold higher in IC50: 950 ± 140 nM for the first, 2390 ± 350 nM for the second.

First: CC1(C)CC[C@]2(C(=O)O)CC[C@]3(C)[C@H]([C@H](OC(=O)CC[C@@H](NC(=O)OC(C)(C)C)C(=O)OC(C)(C)C)CC4[C@@]5(C)CC[C@H](O)C(C)(C)C5CC[C@]43C)[C@@H]2C1 (stereo partly drawn) [Compound 10a, 3-hydroxy-12β-(4′-((tert-butoxycarbonyl)amino)-5′-(tert-butoxy)-D-glutamate)oxy-13H-olean-28-oic acid]
Second: CC1(C)CC[C@]2(C(=O)O)CC[C@]3(C)[C@H]([C@H](OC(=O)[C@@H](CCC(=O)OC(C)(C)C)NC(=O)OC(C)(C)C)CC4[C@@]5(C)CC[C@H](O)C(C)(C)C5CC[C@]43C)[C@@H]2C1 (stereo partly drawn) [Compound 10d, 3-hydroxy-12β-(2′-((tert-butoxycarbonyl)amino)-5′-(tert-butoxy)-D-glutamate)oxy-13H-olean-28-oic acid]
The IC50 of the first is 1.9-fold lower: 1950 ± 270 nM for the first, 3670 ± 390 nM for the second.

`CC1(C)CC[C@]2(C(=O)O)CC[C@]3(C)[C@H]([C@H](OC(=O)C[C@@H](CC(=O)OC(C)(C)C)NC(=O)OC(C)(C)C)CC4[C@@]5(C)CC[C@H](O)C(C)(C)C5CC[C@]43C)[C@@H]2C1` (stereo partly drawn) [Compound 10c, 3-hydroxy-12β-((S)-3′-((tert-butoxycarbonyl)amino)-5′-(tert-butoxy)-5-oxopentanoyl)oxy-13H-olean-28-oic acid] and `COC(=O)C(CCC(=O)OC1CC2C3(C)CCC(O)C(C)(C)C3CCC2(C)C2(C)CCC3(C(=O)O)CCC(C)(C)CC3C12)NC(=O)OC(C)(C)C` [Compound 20a, 3β-hydroxy-12β-(4′-((tert-butoxycarbonyl)amide)-5′-methoxy-L-glutamate)oxy-13H-olean-28-oic acid] are within error of each other in IC50: 1340 ± 230 nM for the first, 1100 ± 190 nM for the second.

First: CC1(C)CC[C@]2(C(=O)O)CC[C@]3(C)[C@H]([C@H](OC(=O)CC[C@H](N)C(=O)OC(C)(C)C)CC4[C@@]5(C)CC[C@H](O)C(C)(C)C5CC[C@]43C)[C@@H]2C1 (stereo partly drawn) [Compound 11a, 3-hydroxy-12β-((S)-4′-amino-5′-(tert-butoxy)-5-oxopentanoyl)oxy-13H-olean-28-oic acid]
Second: CC1(C)CC[C@]2(C(=O)O)CC[C@]3(C)[C@H]([C@H](OC(=O)CC[C@H](N)C(=O)O)CC4[C@@]5(C)CC[C@H](O)C(C)(C)C5CC[C@]43C)[C@@H]2C1 (stereo partly drawn) [Compound 11c, 3-hydroxy-12β-((S)-4′-amino-4′-carboxybutanoyl)oxy-13H-olean-28-oic acid]
The IC50 of the first is 7.2-fold lower: 2950 ± 680 nM for the first, 21300 ± 2600 nM for the second. The first is the more potent here.

Compared with `CC1(C)CC[C@]2(C(=O)O)CC[C@]3(C)[C@H]([C@H](OC(=O)CC[C@H](NC(=O)OC(C)(C)C)C(=O)O)CC4[C@@]5(C)CC[C@H](O)C(C)(C)C5CC[C@]43C)[C@@H]2C1` (stereo partly drawn) [Compound 11b, 3-hydroxy-12β-((S)-4′-((tert-butoxycarbonyl)amino)-4′-carboxybutanoyl)oxy-13H-olean-28-oic acid], `COC(=O)NC(CCC(=O)OC1CC2C3(C)CCC(O)C(C)(C)C3CCC2(C)C2(C)CCC3(C(=O)O)CCC(C)(C)CC3C12)C(=O)OC(C)(C)C` [Compound 19a, 3β-hydroxy-12β-(4′-((methoxycarbonyl)amide)-5′-(tert-butoxy)-L-glutamate)oxy-13H-olean-28-oic acid] is 14-fold lower in IC50: 7650 ± 350 nM for the first, 550 ± 220 nM for the second.

`CCOC(=O)NC(CCC(=O)OC1CC2C3(C)CCC(O)C(C)(C)C3CCC2(C)C2(C)CCC3(C(=O)O)CCC(C)(C)CC3C12)C(=O)OC(C)(C)C` [Compound 19b, 3β-hydroxy-12β-(4′-((ethoxycarbonyl)amide)-5′-(tert-butoxy)-L-glutamate)oxy-13H-olean-28-oic acid] and `CCOC(=O)C(CCC(=O)OC1CC2C3(C)CCC(O)C(C)(C)C3CCC2(C)C2(C)CCC3(C(=O)O)CCC(C)(C)CC3C12)NC(=O)OC(C)(C)C` [Compound 20b, 3β-hydroxy-12β-(4′-((tert-butoxycarbonyl)amide)-5′-ethoxy-L-glutamate)oxy-13H-olean-28-oic acid] are within error of each other in IC50: 570 ± 360 nM for the first, 1020 ± 210 nM for the second.

`CC(C)COC(=O)NC(CCC(=O)OC1CC2C3(C)CCC(O)C(C)(C)C3CCC2(C)C2(C)CCC3(C(=O)O)CCC(C)(C)CC3C12)C(=O)OC(C)(C)C` [Compound 19e, 3β-hydroxy-12β-(4′-((isobutoxycarbonyl)amide)-5′-(tert-butoxy)-L-glutamate)oxy-13H-olean-28-oic acid] and `CC(C)COC(=O)C(CCC(=O)OC1CC2C3(C)CCC(O)C(C)(C)C3CCC2(C)C2(C)CCC3(C(=O)O)CCC(C)(C)CC3C12)NC(=O)OC(C)(C)C` [Compound 20e, 3β-hydroxy-12β-(4′-((tert-butoxycarbonyl)amide)-5′-isobutoxy-L-glutamate)oxy-13H-olean-28-oic acid] are within error of each other in IC50: 920 ± 140 nM for the first, 1000 ± 170 nM for the second.

`CCC(C)OC(=O)NC(CCC(=O)OC1CC2C3(C)CCC(O)C(C)(C)C3CCC2(C)C2(C)CCC3(C(=O)O)CCC(C)(C)CC3C12)C(=O)OC(C)(C)C` [Compound 19f, 3β-hydroxy-12β-(4′-((sec-butoxycarbonyl)amide)-5′-(tert-butoxy)-L-glutamate)oxy-13H-olean-28-oic acid] and `CC(C)OC(=O)C(CCC(=O)OC1CC2C3(C)CCC(O)C(C)(C)C3CCC2(C)C2(C)CCC3(C(=O)O)CCC(C)(C)CC3C12)NC(=O)OC(C)(C)C` [Compound 20d, 3β-hydroxy-12β-(4′-((tert-butoxycarbonyl)amide)-5′-isopropoxy-L-glutamate)oxy-13H-olean-28-oic acid] are within error of each other in IC50: 600 ± 40 nM for the first, 550 ± 90 nM for the second.

`CC1(C)CCC2(C(=O)O)CCC3(C)C(C(OC(=O)CCC(NC(=O)OC4CCCC4)C(=O)OC(C)(C)C)CC4C5(C)CCC(O)C(C)(C)C5CCC43C)C2C1` [Compound 19g, 3β-hydroxy-12β-(4′-(((cyclopentyloxy)carbonyl)amide)-5′-(tert-butoxy)-L-glutamate)oxy-13H-olean-28-oic acid] and `CCCOC(=O)C(CCC(=O)OC1CC2C3(C)CCC(O)C(C)(C)C3CCC2(C)C2(C)CCC3(C(=O)O)CCC(C)(C)CC3C12)NC(=O)OC(C)(C)C` [Compound 20c, 3β-hydroxy-12β-(4′-((tert-butoxycarbonyl)amide)-5′-propoxy-L-glutamate)oxy-13H-olean-28-oic acid] are within error of each other in IC50: 720 ± 180 nM for the first, 560 ± 130 nM for the second.

In the case of `CCCOC(=O)NC(CCC(=O)OC1CC2C3(C)CCC(O)C(C)(C)C3CCC2(C)C2(C)CCC3(C(=O)O)CCC(C)(C)CC3C12)C(=O)OC(C)(C)C` [Compound 19c, 3β-hydroxy-12β-(4′-((propoxycarbonyl)amide)-5′-(tert-butoxy)-L-glutamate)oxy-13H-olean-28-oic acid], the IC50 is reported as 400 to 500 nM and 450 nM.
`CC(C)OC(=O)NC(CCC(=O)OC1CC2C3(C)CCC(O)C(C)(C)C3CCC2(C)C2(C)CCC3(C(=O)O)CCC(C)(C)CC3C12)C(=O)OC(C)(C)C` [Compound 19d, 3β-hydroxy-12β-(4′-((isopropoxycarbonyl)amide)-5′-(tert-butoxy)-L-glutamate)oxy-13H-olean-28-oic acid] was tested, and the IC50 was 400 to 500 nM and 470 nM.
With `CC1(C)CCC2(C(=O)O)CCC3(C)C(C(OC(=O)CCC(NC(=O)Oc4ccccc4)C(=O)OC(C)(C)C)CC4C5(C)CCC(O)C(C)(C)C5CCC43C)C2C1` [Compound 19h, 3β-hydroxy-12β-(4′-((phenoxycarbonyl)amide)-5′-(tert-butoxy)-L-glutamate)oxy-13H-olean-28-oic acid] the IC50 was 2220 nM and 2180 nM.
